pIC50: −log10 of the molar value. Converted amounts (≈) assume the structure as drawn. Like-named read-outs stand apart in the source and are kept apart here.
Legend:
A549 lung cancer = assay: MTT survival assay; conditions: 2 × 10^4 cells/ml
H-460 lung cancer = assay: MTT survival assay; type: cell-based, human; conditions: for IC50: 2 × 10^4 cells/ml
Solubility comparison = type: physicochemical
SKOV3/CIS cells = conditions: cited from earlier work
[1] = system: Colon Cancer Cells HCT-15; assay: MTS cell viability assay; conditions: combinations with Elemene 160 μg/ml, n = 8
[2] = system: Colon Cancer Cells Caco-2; assay: MTS cell viability assay; type: cell-based, human; conditions: combinations with Elemene 100 μg/ml, n = 8
[3] = system: Colon Cancer Cells HCT-116; assay: MTS cell viability assay; type: cell-based, human; conditions: combinations with Elemene 160 μg/ml, n = 8
[4] = system: late-stage colorectal cancer; conditions: enema twice a day for 10 days; Elemene 200 mg (17 patients), 5-FU 500 mg (14 patients); cited from earlier work
[5] = system: Colon Cancer Cells Colo 205; assay: MTS cell viability assay; conditions: Colo 205, drug alone
PC-3 prostate cancer = assay: MTT survival assay; type: cell-based, human; conditions: read-out: Cisplatin IC50, combination: Elemene at IC20 of the cell line
MCAS ovarian cancer = assay: MTT survival assay; type: cell-based, human; conditions: read-out: Cisplatin IC50, combination: Elemene at IC20 of the cell line
A-172 brain tumor = assay: MTT survival assay; type: cell-based, human; conditions: read-out: Cisplatin IC50; A-172; combination: Elemene at IC20 of the cell line
H-69 lung cancer = assay: MTT survival assay; type: cell-based, human; conditions: read-out: Cisplatin IC50, combination: Elemene at IC20 of the cell line
[6] = system: CCL-2 (Hela) cervical cancer; assay: MTT survival assay; type: cell-based, human; conditions: read-out: Cisplatin IC50, combination: Elemene at IC20 of the cell line
DU-145 prostate cancer = assay: MTT survival assay; type: cell-based, human; conditions: read-out: Cisplatin IC50, combination: Elemene at IC20 of the cell line
U-87 brain tumor = assay: MTT survival assay; type: cell-based, human; conditions: read-out: Cisplatin IC50; U-87; combination: Elemene at IC20 of the cell line

## C=C[C@]1(C)CC[C@@H](C(=C)CO)C[C@H]1C(=C)C [(−)-beta-elemenol, (−)-Beta-elemenol]
A549 lung cancer; A549, 24 h
  IC50: 74.0 µg/mL (≈ 336 µM)
A549 lung cancer; A549, 48 h
  IC50: 60.1 µg/mL (≈ 273 µM)
A549 lung cancer; A549, 72 h
  IC50: 81.0 µg/mL (≈ 368 µM)
H-460 lung cancer; H460, 24 h
  IC50: 111.0 µg/mL
H-460 lung cancer; H460, 48 h
  IC50: 69.0 µg/mL
H-460 lung cancer; H460, 72 h
  IC50: 74.5 µg/mL
Solubility comparison
  solubility relative to (−)-beta-elemene: more soluble than (−)-beta-elemene

## COc1ccc(CCN(C)CCCC(C#N)(c2ccc(OC)c(OC)c2)C(C)C)cc1OC (stereo not shown) [Verapamil]
SKOV3/CIS cells
  enhancement of sensitivity to doxorubicin: 260 fold

## O=c1[nH]cc(F)c(=O)[nH]1 [Lr 5-Fu]
[1]; HCT-15, 4 hr/24 hr × 2
  IC50: 40.0 ± 7.01 µg/mL
[1]; HCT-15, 4 hr/24 hr × 3
  IC50: 28.4 ± 7.62 µg/mL
[1]; HCT-15, 4 hr/24 hr
  IC50: 80.0 ± 13.6 µg/mL
[1]; HCT-15, 8 hr
  IC50: 68.1 ± 7.63 µg/mL
[1]; HCT-15, 12 hr
  IC50: 52.1 ± 5.09 µg/mL
[1]; HCT-15, 48 hr
  IC50: 18.4 ± 4.32 µg/mL
[1]; HCT-15, 72 hr
  IC50: 7.95 ± 3.80 µg/mL
[2]; Caco-2, 4 hr/24 hr × 2
  IC50: 17.0 ± 3.29 µg/mL
[2]; Caco-2, 4 hr/24 hr × 3
  IC50: 13.8 ± 2.27 µg/mL
[2]; Caco-2, 4 hr/24 hr
  IC50: 28.8 ± 9.87 µg/mL
[2]; Caco-2, 4 hr
  IC50: 189 ± 27.1 µg/mL
[2]; Caco-2, 8 hr
  IC50: 102 ± 13.0 µg/mL
[2]; Caco-2, 12 hr
  IC50: 42.5 ± 9.84 µg/mL
[2]; Caco-2, 24 hr
  IC50: 23.9 ± 4.37 µg/mL
[2]; Caco-2, 48 hr
  IC50: 18.3 ± 2.83 µg/mL
[2]; Caco-2, 72 hr
  IC50: 12.6 ± 2.07 µg/mL
[3]; HCT-116, 4 hr/24 hr × 2
  IC50: 42.7 ± 4.78 µg/mL
[3]; HCT-116, 4 hr/24 hr × 3
  IC50: 22.4 ± 8.75 µg/mL
[3]; HCT-116, 4 hr/24 hr
  IC50: 85.1 ± 8.89 µg/mL
[3]; HCT-116, 4 hr
  IC50: 83.3 ± 12.1 µg/mL
[3]; HCT-116, 8 hr
  IC50: 43.1 ± 13.1 µg/mL
[3]; HCT-116, 12 hr
  IC50: 21.7 ± 3.70 µg/mL
[3]; HCT-116, 24 hr
  IC50: 11.8 ± 2.54 µg/mL
[3]; HCT-116, 48 hr
  IC50: 7.4 ± 1.82 µg/mL
[3]; HCT-116, 72 hr
  IC50: 4.5 ± 0.74 µg/mL
[4]
  CR: CR: 57.1%
  PR: PR: 21.4%
[5]; Time 4 hr, n = 8
  IC50: 117 ± 9.02 µg/mL (≈ 899 µM)
[5]; Time 4 hr/24 hr × 2, n = 8
  IC50: 26.3 ± 5.34 µg/mL (≈ 202 µM)
[5]; Time 4 hr/24 hr × 3, n = 8
  IC50: 11.6 ± 4.13 µg/mL (≈ 89.2 µM)
[5]; Time 4 hr/24 hr, n = 8
  IC50: 34.6 ± 4.76 µg/mL (≈ 266 µM)
[5]; Time 8 hr, n = 8
  IC50: 91.3 ± 5.62 µg/mL (≈ 702 µM)
[5]; Time 12 hr, n = 8
  IC50: 36.7 ± 4.66 µg/mL (≈ 282 µM)
[5]; Time 24 hr, n = 8
  IC50: 21.1 ± 6.06 µg/mL (≈ 162 µM)
[5]; Time 48 hr, n = 8
  IC50: 13.2 ± 1.44 µg/mL (≈ 101 µM)
[5]; Time 72 hr, n = 8
  IC50: 11.0 ± 1.60 µg/mL (≈ 84.6 µM)

## N.N.[Cl][Pt][Cl] [Cisplatin]
PC-3 prostate cancer
  pIC50: 4.10
MCAS ovarian cancer
  pIC50: 4.42
A-172 brain tumor
  pIC50: 4.62
H-69 lung cancer
  pIC50: 5.10
H-460 lung cancer; read-out: Cisplatin IC50, H-460, combination: Elemene at IC20 of the cell line
  pIC50: 4.10
[6]
  pIC50: 4.56
DU-145 prostate cancer
  pIC50: 3.42
U-87 brain tumor
  pIC50: 5.00
